In PubChem BioAssay AID248 (DTP/NCI, 2004):
“And” between values parts separate entries of the source, which are not always exact repeats. Equal values may be shown once. Inconclusive results and toxic doses are left out. Rule as the data show it: active = T/C of 150% or more; inactive = T/C below 125%.

Test system: L1210 leukemia ip in BDF1 mice, survival T/C
Test: NCI In Vivo Anticancer Drug Screen. Data for tumor model L1210 Leukemia (intraperitoneal) in B6D2F1 (BDF1) mice
Conditions: endpoint: mean survival time, higher = longer survival
Procedure, shortened: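 Value reflects the ratio of survival in compound-treated mice to survival in vehicle-treated controls, with both groups carrying the same transplanted tumor.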

[1] = dose: 50.0 mg/kg/injection, schedule: Q01DX009 (ip), vehicle: saline with Tween-80
[2] = dose: 100.0 mg/kg/injection, schedule: Q04DX003 (ip), vehicle: saline with Tween-80
[3] = dose: 200.0 mg/kg/injection, schedule: Q04DX003 (ip), vehicle: saline with Tween-80
[4] = dose: 100.0 mg/kg/injection, schedule: Q04DX002 (ip), vehicle: saline with Tween-80
[5] = dose: 400.0 mg/kg/injection, schedule: Q04DX002 (ip), vehicle: saline with Tween-80
[6] = dose: 100.0 mg/kg/injection, schedule: Q01DX001 (ip), vehicle: saline with Tween-80
[7] = dose: 200.0 mg/kg/injection, schedule: Q01DX001 (ip), vehicle: saline with Tween-80
[8] = dose: 400.0 mg/kg/injection, schedule: Q01DX001 (ip), vehicle: saline with Tween-80

Measured: T/C

CNC(C)(C)C(SSSC(c1ccc(Cl)cc1)C(C)(C)NC)c1ccc(Cl)cc1 (stereo not given)
inactive: dose: 12.5 mg/kg/injection, schedule: Q01DX009 (ip), vehicle: saline with Tween-80 103 % of control | dose: 12.5 mg/kg/injection, schedule: Q04DX003 (ip), vehicle: saline with Tween-80 98 % of control | dose: 25.0 mg/kg/injection, schedule: Q01DX009 (ip), vehicle: saline with Tween-80 98 % of control | dose: 25.0 mg/kg/injection, schedule: Q04DX003 (ip), vehicle: saline with Tween-80 100 % of control | [1] 97 % of control | dose: 50.0 mg/kg/injection, schedule: Q04DX003 (ip), vehicle: saline with Tween-80 96 % of control

CC(C)N(CCCO)C(C)C
inactive: dose: 50.0 mg/kg/injection, schedule: Q01DX009 (ip), vehicle: saline 95 % of control | dose: 100.0 mg/kg/injection, schedule: Q01DX009 (ip), vehicle: saline 93 % of control | [2] 95 % of control | dose: 200.0 mg/kg/injection, schedule: Q01DX009 (ip), vehicle: saline 95 % of control | [3] 97 % of control

CC(=O)[O][Pb]([CH3])([CH3])[CH3]
inactive: dose: 5.0 mg/kg/injection, schedule: Q01DX001 (ip), vehicle: carboxymethylcellulose (CMC) 110 % of control | dose: 10.0 mg/kg/injection, schedule: Q01DX001 (ip), vehicle: carboxymethylcellulose (CMC) 103 % of control

O=C(c1ccccc1)C1NC1c1ccc([N+](=O)[O-])cc1 (stereo not given)
inactive: dose: 50.0 mg/kg/injection, schedule: Q01DX001 (ip), vehicle: Klucel (hydroxypropylcellulose) (HPC) 89 % of control | dose: 100.0 mg/kg/injection, schedule: Q01DX001 (ip), vehicle: Klucel (hydroxypropylcellulose) (HPC) 97 % of control | dose: 200.0 mg/kg/injection, schedule: Q01DX001 (ip), vehicle: Klucel (hydroxypropylcellulose) (HPC) 97 % of control | dose: 400.0 mg/kg/injection, schedule: Q01DX001 (ip), vehicle: Klucel (hydroxypropylcellulose) (HPC) 92 % of control

O=[As](O)(O[As](=O)(O)c1ccccc1)c1ccccc1
inactive: dose: 5.0 mg/kg/injection, schedule: Q01DX001 (ip), vehicle: saline 103 % of control | dose: 10.0 mg/kg/injection, schedule: Q01DX001 (ip), vehicle: saline 103 % of control | dose: 20.0 mg/kg/injection, schedule: Q01DX001 (ip), vehicle: saline 103 % of control | dose: 40.0 mg/kg/injection, schedule: Q01DX001 (ip), vehicle: saline 101 % of control

CN(C)N=C(Cc1ccccc1)Cc1ccccc1
inactive: [1] 97 % of control | dose: 100.0 mg/kg/injection, schedule: Q01DX009 (ip), vehicle: saline with Tween-80 103 % of control | [2] 103 % of control | [3] 106 % of control

N#CC(=C=[N-])[n+]1ccccc1
inactive: dose: 6.25 mg/kg/injection, schedule: Q01DX009 (ip), vehicle: saline 100 % of control | dose: 12.5 mg/kg/injection, schedule: Q01DX009 (ip), vehicle: saline 100 % of control | dose: 18.8 mg/kg/injection, schedule: Q01DX001 (ip), vehicle: saline 108 % of control | dose: 37.5 mg/kg/injection, schedule: Q01DX001 (ip), vehicle: saline 100 % of control

O=[N+]([O-])C1CCC2CCC3CCCC1C32 (stereo not given)
inactive: dose: 25.0 mg/kg/injection, schedule: Q04DX002 (ip), vehicle: saline with Tween-80 97 % of control | dose: 50.0 mg/kg/injection, schedule: Q04DX002 (ip), vehicle: saline with Tween-80 91 % of control | [4] 101 % of control and 102 % of control | [5] 93 % of control

CN(C)c1ccc(/C=N/NC(=O)c2cnc3ccccc3c2)cc1
inactive: [4] 102 % of control | dose: 200.0 mg/kg/injection, schedule: Q04DX002 (ip), vehicle: saline with Tween-80 97 % of control | [5] 94 % of control

C=Cn1nnnc1N
inactive: [6] 100 % of control | [7] 93 % of control | [8] 98 % of control

CCCCOC(=O)c1ccc(NC(=O)Nc2cc([N+](=O)[O-])ccc2Cl)cc1
inactive: dose: 25.0 mg/kg/injection, schedule: Q01DX009 (ip), vehicle: Klucel (hydroxypropylcellulose) (HPC) 113 % of control | dose: 50.0 mg/kg/injection, schedule: Q01DX009 (ip), vehicle: Klucel (hydroxypropylcellulose) (HPC) 100 % of control | dose: 100.0 mg/kg/injection, schedule: Q01DX009 (ip), vehicle: Klucel (hydroxypropylcellulose) (HPC) 90 % of control

Cc1nc(N(C)C)[nH]c(=O)c1CCCNc1ccccc1
inactive: [6] 111 % of control | [7] 96 % of control | [8] 100 % of control
